Assay results as given in patent US20170050957A1, “4-AMINO-6-(HETEROCYCLIC)PICOLINATES AND 6-AMINO-2-(HETEROCYCLIC)PYRIMIDINE-4-CARBOXYLATES AND THEIR USE AS HERBICIDES” (Dow AgroSciences LLC, priority 2013, published 2017).
Like-named read-outs stand apart in the source and are kept apart here.

Key:
[1] = test system: Key Grass and Sedge Weeds as well as Grass Crops; test: Post-emergent Test II herbicidal activity (Table 16); assay type: in vivo; conditions: post-emergence, 336 h, 14 days after application; for pest or weed control at 35 g/ha: 35 g ai/ha; for pest or weed control at 70 g/ha: 70 g ai/ha; for pest or weed control at 140 g/ha: 140 g ai/ha
Outline: (§1)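 Greenhouse-grown seedlings at first/second true leaf receive a track spray at 187 L/ha, using a highest rate plus two-fold serial dilutions down to 1/16×. Watering is by subirrigation to avoid wash-off. Percent injury (0-100) is judged by eye at 14 d against untreated plants.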

[2] = test system: Key Broadleaf Weed and Crop Species; test: Post-emergent Test II herbicidal activity (Table 15); assay type: in vivo; conditions: post-emergence, 336 h, 14 d; for pest or weed control at 35 g/ha: 35 g ai/ha; for pest or weed control at 70 g/ha: 70 g ai/ha; for pest or weed control at 140 g/ha: 140 g ai/ha
Outline: as §1

[3] = Cyperus esculentus, yellow nutsedge (Cyperus esculentus), read-out: Visual Growth Reduction (%) 14 Days After Application CYPES
[4] = Echinochloa crus-galli, barnyardgrass (Echinochloa crus-galli), read-out: Visual Growth Reduction (%) 14 Days After Application ECHCG
[5] = Oryza sativa, rice (Oryza sativa), read-out: Visual Growth Reduction (%) 14 Days After Application ORYSA
[6] = Setaria faberi, giant foxtail (Setaria faberi), read-out: Visual Growth Reduction (%) 14 Days After Application SETFA
[7] = Triticum aestivum, wheat, spring (Triticum aestivum), read-out: Visual Growth Reduction (%) 14 Days After Application TRZAS
[8] = Zea mays, maize, corn (Zea mays), read-out: Visual Growth Reduction (%) 14 Days After Application ZEAMX
[9] = Abutilon theophrasti, velvetleaf (Abutilon theophrasti), read-out: Visual Growth Reduction (%) 14 Days After Application, ABUTH
[10] = Amaranthus retroflexus, redroot pigweed (Amaranthus retroflexus), read-out: Visual Growth Reduction (%) 14 Days After Application, AMARE
[11] = Brassica napus, oilseed rape, canola (Brassica napus), read-out: Visual Growth Reduction (%) 14 Days After Application, BRSNN
[12] = Chenopodium album, lambsquarters (Chenopodium album), read-out: Visual Growth Reduction (%) 14 Days After Application, CHEAL
[13] = Euphorbia heterophylla, wild poinsettia (Euphorbia heterophylla), read-out: Visual Growth Reduction (%) 14 Days After Application, EPHHL
[14] = Helianthus annuus, sunflower (Helianthus annuus), read-out: Visual Growth Reduction (%) 14 Days After Application, HELAN

| Compound | pest or weed control at 35 g/ha [1, 3] [%] | pest or weed control at 70 g/ha [1, 3] [%] | pest or weed control at 140 g/ha [1, 3] [%] | pest or weed control at 35 g/ha [1, 4] [%] | pest or weed control at 70 g/ha [1, 4] [%] | pest or weed control at 140 g/ha [1, 4] [%] | pest or weed control at 35 g/ha [1, 5] [%] | pest or weed control at 70 g/ha [1, 5] [%] | pest or weed control at 140 g/ha [1, 5] [%] | pest or weed control at 35 g/ha [1, 6] [%] | pest or weed control at 70 g/ha [1, 6] [%] | pest or weed control at 140 g/ha [1, 6] [%] | pest or weed control at 35 g/ha [1, 7] [%] | pest or weed control at 70 g/ha [1, 7] [%] | pest or weed control at 140 g/ha [1, 7] [%] | pest or weed control at 35 g/ha [1, 8] [%] | pest or weed control at 70 g/ha [1, 8] [%] | pest or weed control at 140 g/ha [1, 8] [%] | melting point [°C] | pest or weed control at 35 g/ha [2, 9] [%] | further results |
| --- | --- | --- | --- | --- | --- | --- | --- | --- | --- | --- | --- | --- | --- | --- | --- | --- | --- | --- | --- | --- | --- |
| COC(=O)c1nc(-c2ccc3cn[nH]c3c2)cc(N)c1Cl [Compound 4.09] | 0 to 29 | 0 to 29 | 0 to 29 | 0 to 29 | 0 to 29 | 0 to 29 | 0 to 29 | 0 to 29 | 0 to 29 | 0 to 29 | 0 to 29 | 0 to 29 | 0 to 29 | 0 to 29 | 0 to 29 | 0 to 29 | 0 to 29 | 0 to 29 | 191 to 193 | 0 to 29 | pest or weed control at 70 g/ha [2, 9]: 0 to 29%; pest or weed control at 140 g/ha [2, 9]: 0 to 29%; pest or weed control at 35 g/ha [2, 10]: 0 to 29%; pest or weed control at 70 g/ha [2, 10]: 45 to 59%; pest or weed control at 140 g/ha [2, 10]: 85 to 94%; pest or weed control at 35 g/ha [2, 11]: 0 to 29%; pest or weed control at 70 g/ha [2, 11]: 0 to 29%; pest or weed control at 140 g/ha [2, 11]: 60 to 74%; pest or weed control at 35 g/ha [2, 12]: 45 to 59%; pest or weed control at 70 g/ha [2, 12]: 75 to 84%; pest or weed control at 140 g/ha [2, 12]: 85 to 94%; pest or weed control at 35 g/ha [2, 13]: 0 to 29%; pest or weed control at 70 g/ha [2, 13]: 0 to 29%; pest or weed control at 140 g/ha [2, 13]: 0 to 29%; pest or weed control at 35 g/ha [2, 14]: 0 to 29%; pest or weed control at 70 g/ha [2, 14]: 30 to 44%; pest or weed control at 140 g/ha [2, 14]: 45 to 59% |
| COC(=O)c1nc(-c2cccc3c2cnn3C)c(F)c(N)c1Cl [Compound 4.10] | 0 to 29 | 0 to 29 | 0 to 29 | 0 to 29 | 0 to 29 | 0 to 29 | 0 to 29 | 0 to 29 | 0 to 29 | 0 to 29 | 0 to 29 | 0 to 29 | 0 to 29 | 0 to 29 | 0 to 29 | 0 to 29 | 0 to 29 | 0 to 29 | 170 to 175 | 0 to 29 | pest or weed control at 70 g/ha [2, 9]: 0 to 29%; pest or weed control at 140 g/ha [2, 9]: 0 to 29%; pest or weed control at 35 g/ha [2, 10]: 0 to 29%; pest or weed control at 70 g/ha [2, 10]: 95 to 100%; pest or weed control at 140 g/ha [2, 10]: 95 to 100%; pest or weed control at 35 g/ha [2, 11]: 0 to 29%; pest or weed control at 70 g/ha [2, 11]: 0 to 29%; pest or weed control at 140 g/ha [2, 11]: 0 to 29%; pest or weed control at 35 g/ha [2, 12]: 0 to 29%; pest or weed control at 70 g/ha [2, 12]: 0 to 29%; pest or weed control at 140 g/ha [2, 12]: 0 to 29%; pest or weed control at 35 g/ha [2, 13]: 0 to 29%; pest or weed control at 70 g/ha [2, 13]: 0 to 29%; pest or weed control at 140 g/ha [2, 13]: 0 to 29%; pest or weed control at 35 g/ha [2, 14]: 0 to 29%; pest or weed control at 70 g/ha [2, 14]: 0 to 29%; pest or weed control at 140 g/ha [2, 14]: 45 to 59% |
